Measured values as given in patent US10022459B2, “Medical tissue-marker and manufacturing method for the same” (NATIONAL UNIVERSITY CORPORATION CHIBA UNIVERSITY, priority 2011, dated 2018).

Experiments:
[1] = tested on: submucosal layer of the stomach wall of a pig; experiment: Local injection into submucosal layer of the stomach wall of a pig, fluorescent laparoscope view from the outside of the stomach; format: in vivo
Experimental: Then, the fabricated clusters were injected into biological tissue and the result thereof was confirmed. Specifically, submucosal layer of the stomach wall of a pig was a most suitable target of the marker administration. The fluid dispersion of 300 μl, including the clusters, was administrated on four points surrounding a metal clip placed inside the stomach by local injection.
The left and middle panels show conventional and fluorescent laparoscopic images immediately after local injection, respectively. […] It was confirmed that the clusters were sufficiently stable at the injection points. […] In this case, the exact injection positions were unclear immediately after injection as well as 6 hours after injection.
Herein, the stability was again confirmed 24 hours after the local injection of the marker. The submucosal layer of the stomach wall was a most suitable target of the marker administration. The fluid dispersion of 300 μl including clusters was administrated at two points surrounding a metal clip by local injection. The pig recovered from general anesthesia after the administration. Twenty-four hours later, laparoscopy was performed again under general anesthesia.
The optimum injection amount of the marker was verified. When the concentration of the clusters according to the example 1 was 100 μl or more, the injection points could be confirmed. The concentration thereof was preferably 200 μl or more, and is more preferably 300 μl or more. In FIG. 17, 50 μl was used. In FIG. 18, 100 μl was used. In FIG. 19, 200 μl was used. In FIG. 20, 300 μl was used.

stomach of the pig = experiment: Fluorescence imaging (near-infrared LED light) of the excised pig stomach after marker administration; format: in vivo; settings: 32 hours after administration, 300 μl each at four points
Experimental: Then, the stomach of the pig was excised, and fluorescence and X-ray CT imaging was performed 32 hours after the marker (300 μl each at four points around a metal clip) administration.

CC1(C)C(/C=C/C=C/C=C/C=C2\N(CCCCS(=O)(=O)O)c3ccc4ccccc4c3C2(C)C)=[N+](CCCCS(=O)(=O)[O-])c2ccc3ccccc3c21 [ICG aqueous solution, indocyanine green]
identification of injection points in fluorescent laparoscopic image ([1]; 6 hours after local injection, 300 μl at four points): unclear | distinguishability of four closely located injection points by fluorescent laparoscope ([1]; 18 hours after administration, 300 μl at four points): impossible to distinguish | identification of injection points in fluorescent laparoscopic image ([1]; immediately after local injection): unclear | fluorescence pattern at the injection site (stomach of the pig): broad diffusion of the fluorescence
